Test results as given in US20030187058A1, “Combination of lipoic acids and conjugated acids for treating diabetic disorders” (priority 2000, published 2003).

Key:
skeletal muscle = assay: Insulin-induced skeletal muscle glucose transport activity in treated obese Zucker rats (summary statement); type: in vivo, obese Zucker rat (fa/fa); details: each substance alone
Excerpt: (§1) The obese Zucker rat (fa/fa) is an animal model of insulin resistance, glucose intolerance, hyperinsulinaemia and dyslipidaemia. This model was used to determine the effect of four different forms of diet (control, R-lipoic acid (R—LA), conjugated linoleic acid (CLA) and a combination of conjugated linoleic acid and R-lipoic acid) on insulin-induced skeletal muscle glucose transport activity and on glucose tolerance.
The test animals were maintained on regular chow and water ad libitum. At the age of 9-10 weeks, the animals were assigned to either a vehicle-treated control group or to intervention groups receiving either R-lipoic acid (10 mg/kg bodyweight), conjugated linoleic acid (c9,t11:t10,c12; 50:50; 0.3 g/kg bodyweight) or both. R-lipoic acid was administered by intraperitoneal injection; conjugated linoleic acid by gavage. The treatment period lasted for 18-20 days.
24 hours after the final treatment and having been restricted to 4 g chow during the previous 13 hours, animals were deeply anaesthetised with pentobarbital sodium (50 mg/kg ip). Right soleus muscles and both right and left epitrochlearis muscles were surgically removed and prepared for incubation in vitro. […] Glucose transport activity was then determined as described by Hendriksen and Halseth (J Appl Physiol 1994; 76: 1862-1867).

soleus muscle = assay: 2-Deoxyglucose uptake (glucose transport activity) in soleus muscle removed from treated obese Zucker rats, incubated in vitro; type: in vivo, obese Zucker rat (fa/fa); details: obese Zucker rats treated 18-20 days; for 2-Deoxyglucose level, Increase: insulin-stimulated minus basal; for 2-Deoxyglucose level, + Insulin [5 mU/ml] / 2-Deoxyglucose level, Basal: R-LA 10 mg/kg ip, CLA 0.3 mg/kg (table) by gavage; for 2-Deoxyglucose level, + Insulin [5 mU/ml]: insulin 5 mU/ml in vitro; for 2-Deoxyglucose level, Basal: no insulin
Excerpt: as §1
(§2) The test animals were maintained on regular chow and water ad libitum. […] R-lipoic acid was administered by intraperitoneal injection; conjugated linoleic acid by gavage. The treatment period lasted for 18-20 days.
(§3) 24 hours after the final treatment and having been restricted to 4 g chow during the previous 13 hours, animals were deeply anaesthetised with pentobarbital sodium (50 mg/kg ip). Right soleus muscles and both right and left epitrochlearis muscles were surgically removed and prepared for incubation in vitro. Muscles were prepared as described by Peth J A et al. (Am J Physiol Regulatory Integrative Comp Physiol 2000; 278: R453-R459). Glucose transport activity was then determined as described by Hendriksen and Halseth (J Appl Physiol 1994; 76: 1862-1867).

epitrochlearis muscle = assay: 2-Deoxyglucose uptake (glucose transport activity) in epitrochlearis muscle removed from treated obese Zucker rats, incubated in vitro; type: in vivo, obese Zucker rat (fa/fa); details: obese Zucker rats treated 18-20 days; for 2-Deoxyglucose level, Increase: insulin-stimulated minus basal; for 2-Deoxyglucose level, + Insulin [5 mU/ml] / 2-Deoxyglucose level, Basal: R-LA 10 mg/kg ip, CLA 0.3 mg/kg (table) by gavage; for 2-Deoxyglucose level, + Insulin [5 mU/ml]: insulin 5 mU/ml in vitro; for 2-Deoxyglucose level, Basal: no insulin
Excerpt: as §1, §2, §3

[1] = test system: patients with type II diabetes; details: single parenteral dose of 1,000 mg; cited from earlier work
NIDDM patients = details: 800 mg each day for 4 months; cited from earlier work
diabetic polyneuropathy = details: 3-week intravenous and subsequent 6-months oral treatment, cited from earlier work
diabetic neuropathy = details: intravenous 600 mg a day for 3 weeks; cited from earlier work

| Molecule | skeletal muscle glucose transport activity following stimulation by insulin, beyond the increase in the vehicle-treated control group (skeletal muscle) | 2-Deoxyglucose level, Increase (soleus muscle) | 2-Deoxyglucose level, + Insulin [5 mU/ml] (soleus muscle) | 2-Deoxyglucose level, Basal (soleus muscle) | 2-Deoxyglucose level, Increase (epitrochlearis muscle) | 2-Deoxyglucose level, + Insulin [5 mU/ml] (epitrochlearis muscle) | 2-Deoxyglucose level, Basal (epitrochlearis muscle) | glucose utilization [1] | cardiovascular autonomic symptoms (NIDDM patients) | neuropathic deficits (diabetic polyneuropathy) | neuropathic symptoms (diabetic polyneuropathy; versus placebo) | symptomatic complaints (diabetic neuropathy) |
| --- | --- | --- | --- | --- | --- | --- | --- | --- | --- | --- | --- | --- |
| O=C(O)CCCC[C@@H]1CCSS1 [R-LA, (R)-5-(1,2-dithiolan-3-yl)-valeric acid] | Neither R-lipoic acid nor conjugated linoleic acid alone increased | 258 +/− 16 pmol/mg muscle | 481 +/− 19 pmol/mg muscle | 224 +/− 7 pmol/mg muscle | 102 +/− 11 pmol/mg muscle | 225 +/− 8 pmol/mg muscle | 123 +/− 3 pmol/mg muscle | – | – | – | – | – |
| O=C(O)CCCCC1CCSS1 (stereo not shown) [lipoic acid, 5-(1,2-dithiolan-3-yl)valeric acid] | – | – | – | – | – | – | – | distinct improvement | no significant change | appeared to have a beneficial effect | no effect on neuropathic symptoms distinguishable from placebo | decreased |
| conjugated linoleic acid [CLA] | Neither R-lipoic acid nor conjugated linoleic acid alone increased | 261 +/− 13 pmol/mg muscle | 492 +/− 9 pmol/mg muscle | 231 +/− 6 pmol/mg muscle | 123 +/− 13 pmol/mg muscle | 248 +/− 14 pmol/mg muscle | 126 +/− 4 pmol/mg muscle | – | – | – | – | – |
